Assay results taken from patent US7560491B2, “Z-stilbenes derivatives and the pharmaceutical composition thereof” (Taipei Medical University, priority 2006, dated 2009).

| melting point [°C] | Structure (SMILES) |
| --- | --- |
| 83.2 to 86.3 | COc1ccc(/C=C\c2cc(OC)cc(OC)c2N)cc1 |
| 62.7 to 63.8 | COc1ccc(/C=C\c2cc(OC)c(OC)cc2N)cc1 |
| 97.3 to 98.1 | COc1ccc(/C=C\c2cc(OC)c(OC)c(OC)c2N)cc1N |
